Patent US9340577B2, “HLA binding motifs and peptides and their uses” (priority 1992, dated 2016)
No end group written: not given here.

Legend:
Test in all cases: biochemical
Type in all cases: binding
[1] = molecular target: HLA-A11 (A*1101) (Homo sapiens, UniProt P04439, A114D/D185E/E176A/F33Y/L180Q/S129P/T187R)
[2] = molecular target: A31 (A*3101) (Homo sapiens, UniProt P04439, A270S/D185E/E176V/E277Q/F33T/G231S/G80R/H175R/I121M/I218V/I322F/K168Q/L300P/L318F/M331R/P217A/Q94H/R138Q/T323A/T345S/T97I/V358M)
[3] = molecular target: A*6801 (Homo sapiens, UniProt P04439, A269V/D185E/E176V/E277Q/E87N/F33Y/G231S/I121M/I166T/I218V/L180W/L300P/L318F/N151K/P208A/P217A/Q86R/R169H/T345S)
[4] = molecular target: A*3301 (Homo sapiens, UniProt P04439, A270S/D185E/E176V/E277Q/E87N/F33T/G231S/H175R/I121M/I218V/I322F/K168Q/K210R/L300P/L318F/M331R/P217A/Q86R/Q94H/R138Q/T323A/T345S/T97I/V358M/Y195H)

Row | Compound | IC50 [1] | IC50 [2] | IC50 [3] | IC50 [4] | active receptor [1] | binding class for HLA-A11.2 [1]
1 | SVFQNLQVIK [Peptide 9012.0231] | 11 nM | 3560 nM | 16 nM | 6220 nM |  | 
2 | GQVNCKGIYY [Peptide 88.0209] | 168 nM | 2760 nM | > 20000 nM | > 20000 nM |  | 
3 | RQLFLNTVK [Peptide 1589.44] | 39 nM | 87 nM | 16200 nM | > 20000 nM |  | 
4 | YSVYGTTLEK [Peptide 78.0054] | 100 nM | > 20000 nM | 36 nM | > 20000 nM |  | 
5 | KQLCDLLIR [Peptide 1513.14] | 1680 nM | 24 nM | > 20000 nM | 6900 nM |  | 
6 | KVSEFRWYRY [Peptide 78.0053] | 24 nM | 11 nM | 1910 nM | 7070 nM |  | 
7 | GTTLEQQYNK [Peptide 78.0044] | 69 nM | > 20000 nM | 3940 nM | > 20000 nM |  | 
8 | ESKKKVESK [Peptide 9017.0082] | > 20000 nM | > 20000 nM | 250 nM | > 20000 nM |  | 
9 | NVCVSWKYK [Peptide 88.0383] | 927 nM | 265 nM | 628 nM | 2460 nM |  | 
10 | KGLGISYGR [Peptide 1577.30] | 415 nM | 1.4 nM | > 20000 nM | > 20000 nM |  | 
11 | SSLARRHMAR [Peptide 9017.0193] | 928 nM | 4.8 nM | 869 nM | 190 nM |  | 
12 | FVSFLSALK [Peptide 1587.37] | 8.8 nM | 4370 nM | 13 nM |  |  | 
13 | KLTEDRWNK [Peptide 9017.0108] | 42 nM | 55 nM | > 20000 nM | > 20000 nM |  | 
14 | TLSAELPK [Peptide 1556.24] | 102 nM | > 20000 nM | > 20000 nM | > 20000 nM |  | 
15 | LVYRDDFPK [Peptide 88.0280] |  |  | 110 nM |  |  | 
16 | WTIVYIEYR [Peptide 9017.0117] |  |  | 17 nM | 92 nM |  | 
17 | AQVLHVLKR [Peptide 88.0335] | 79 nM |  | 6530 nM | 64 nM |  | 
18 | KVCLRLLSK [Peptide 78.0302] | 230 nM | 525 nM | > 20000 nM | > 20000 nM |  | 
19 | QVNCKGIYY [Peptide 88.0408] | 1620 nM | > 20000 nM | > 20000 nM | > 20000 nM |  | 
20 | TFPNPFPFDK [Peptide 88.0162] | 221 nM | 2260 nM | 1110 nM | 1830 nM |  | 
21 | AIRKAILGHR [Peptide 9017.0223] | 12600 nM | 25 nM | 7730 nM | 1520 nM |  | 
22 | VTVYYGVPVRR [Peptide 1525.07] | 271 nM | 59 nM | 32 nM | 795 nM |  | 
23 | TLTYISTSQR [Peptide 88.0211] | 8270 nM | 688 nM | 56 nM | 1010 nM |  | 
24 | SQIQYWQLIR [Peptide 88.0199] | 84 nM | 219 nM |  | 7540 nM |  | 

Row | Compound | IC50 [1] | IC50 [2] | IC50 [3] | IC50 [4] | active receptor [1] | binding class for HLA-A11.2 [1]
25 | TVTYSPALNK [Peptide 1556.40] |  | > 20000 nM | 165 nM | > 20000 nM |  | 
26 | GILRQRRAR [Peptide 9017.0114] | 672 nM | 177 nM | 1480 nM | 3190 nM |  | 
27 | AVDLYHFLK [Peptide 940-06, reference compound] |  |  |  |  | 10% | 
28 | IVKETELRK [Peptide 9012.0209] |  | > 20000 nM | 1730 nM | > 20000 nM |  | 
29 | EQMLIQPPK [Peptide 88.0378] | 79 nM | > 20000 nM | 732 nM | 831 nM |  | 
30 | QQQMFLGTVK [Peptide 88.0219] | 13 nM |  | 1460 nM | > 20000 nM |  | 
31 | CC(C)C[C@H](NC(=O)[C@H](CCCNC(=N)N)NC(=O)[C@H](CCC(=O)O)NC(=O)[C@H](CCC(N)=O)NC(=O)[C@H](CCCNC(=N)N)NC(=O)[C@H](C)NC(=O)[C@@H](N)CCCNC(=N)N)C(=O)N[C@@H](CCC(N)=O)C(=O)N[C@@H](CCCNC(=N)N)C(=O)O [Peptide 78.0311] | > 20000 nM | 350 nM | > 20000 nM | > 20000 nM |  | 
32 | FAFADLTVVY [Peptide 78.0115] |  | > 20000 nM |  | > 20000 nM |  | 
33 | FVVYRDSIPK [Peptide 88.0026] |  |  | 10 nM |  |  | 
34 | VQLDIQSTK [Peptide 78.0301] | 216 nM |  | > 20000 nM | > 20000 nM |  | 
35 | RVHSSHLKSKK [Peptide 1556.75] | 20 nM | 300 nM | 2150 nM | 12000 nM |  | 
36 | MTLESILRR [Peptide 9012.0215] | 14 nM | 243 nM | 15 nM | 94 nM |  | 
37 | AQVLHLLKR [Peptide 88.0364] |  | 98 nM | 19500 nM | 3780 nM |  | 
38 | KTVRLIKFLY [Peptide 9017.0197] | 235 nM | 1300 nM | 12000 nM | 6650 nM |  | 
39 | VLMWKFDSR [Peptide 9017.0066] | 883 nM | 72 nM | 516 nM | 63 nM |  | 
40 | TTYAEPPK [Peptide 1556.11] |  | > 20000 nM | 320 nM | > 20000 nM |  | 
41 | EFVSFLSALK [Peptide 1587.36] |  |  | 22 nM | 17 nM |  | 
42 | MLIEPPKLR [Peptide 88.0366] | 2880 nM | 3160 nM | 12 nM | 150 nM |  | 
43 | RQLKETELRK [Peptide 9012.0249] |  | > 20000 nM | > 20000 nM | 12600 nM |  | 
44 | YLTAPTGCLK [Peptide 1589.15] | 573 nM | > 20000 nM | 2560 nM | > 20000 nM |  | 
45 | ALQGLAQSR [Peptide 88.0398] | 2760 nM | 311 nM | 11300 nM | > 20000 nM |  | 
46 | TFPHAFPFDK [Peptide 88.0176] |  | 4960 nM | 200 nM | > 20000 nM |  | 
47 | STTETADPK [Peptide 88.0441] | 17 nM | 3580 nM | 74 nM | > 20000 nM |  | 
48 | LALTALIKPK [Peptide 9017.0227] | 34 nM |  | 3480 nM | > 20000 nM |  | 

Row | Compound | IC50 [1] | IC50 [2] | IC50 [3] | IC50 [4] | active receptor [1] | binding class for HLA-A11.2 [1]
49 | TVYAEPPR [Peptide 1556.10] |  | 8410 nM | 21 nM | 11800 nM |  | 
50 | TTLEKLTNK [Peptide 78.0283] | 42 nM | 598 nM | 2560 nM | 469 nM |  | 
51 | MSFLTALKR [Peptide 1587.11] | 26 nM | 49 nM | 2.4 nM |  |  | 
52 | HLVPWDQLFR [Peptide 9012.0236] |  | 308 nM | 21 nM |  |  | 
53 | ATCALYWYR [Peptide 88.0371] | 18 nM | 19 nM | 120 nM | 15 nM |  | 
54 | IVIKRRQQK [Peptide 9012.0206] |  | 712 nM | 3300 nM | 9110 nM |  | 
55 | ITIEKLLEK [Peptide 1587.31] | 14 nM |  | 16 nM | 11000 nM |  | 
56 | CC(C)C[C@H](NC(=O)[C@H](CCCNC(=N)N)NC(=O)[C@H](Cc1ccccc1)NC(=O)CNC(=O)[C@@H](N)Cc1ccc(O)cc1)C(=O)NCC(=O)N[C@@H](Cc1ccccc1)C(=O)N[C@@H](CC(C)C)C(=O)N[C@@H](Cc1c[nH]cn1)C(=O)O [Peptide 1556.26] | 19 nM | 3250 nM |  | 9910 nM |  | 
57 | AVHLCTETSK [Peptide 88.0230] | 87 nM |  | 10500 nM | > 20000 nM |  | 
58 | VLCTYSPALNK [Peptide 1556.36] | 150 nM | 4800 nM | 14700 nM | > 20000 nM |  | 
59 | GTGISYGRK [Peptide 66.0062] |  | > 20000 nM |  | > 20000 nM |  | 
60 | LTALIKPKK [Peptide 9017.0100] | 71 nM | 2480 nM | 27 nM | 1110 nM |  | 
61 | KQSRAAKRR [Peptide 88.0325] | 18800 nM |  | 1120 nM | 512 nM |  | 
62 | IVYRDNNPY [Peptide 78.0292] | 18 nM | > 20000 nM |  | > 20000 nM |  | 
63 | KQGAMLAVFK [Peptide 88.0142] |  | 519 nM | 235 nM | > 20000 nM |  | 
64 | ILWKDIFHR [Peptide 9012.0201] |  | 6.4 nM | 235 nM | 4.8 nM |  | 
65 | RQRKIDWLIK [Peptide 9017.0247] |  | 95 nM | > 20000 nM | > 20000 nM |  | 
66 | KTLGISYGRK [Peptide 66.0073] |  |  |  | > 20000 nM |  | 
67 | RTEVYQFAFK [Peptide 78.0062] |  | 1690 nM | 3310 nM | 9180 nM |  | 
68 | LQHASTSTPK [Peptide 88.0224] | 20 nM | 5820 nM |  | > 20000 nM |  | 
69 | KTLGISYGRKK [Peptide 66.0090] |  |  |  | > 20000 nM |  | 
70 | QQLLRREVY [Peptide E6-42] |  |  |  |  |  | weak affinity
71 | GLVFGILIKR [Peptide 9012.0244] | 489 nM | 2110 nM |  | 2640 nM |  | 
